Drawing on patent US20230027985A1, “SUBSTITUTED HYDANTOINAMIDES AS ADAMTS7 ANTAGONISTS” (Bayer Aktiengesellschaft, priority 2019, published 2023), this text covers IC50 for 21 compounds.

What is called IC50 is the point on the concentration scale where inhibition reaches its midpoint.

SMILES strings stand for the structures.

In test [1] the target is T1, Purified recombinant ADAMTS-7 (rat prodomain/human catalytic domain, SEQ ID No. 01 or 02) (Homo sapiens, UniProt Q9UKP4).
T1 construct: rat ADAMTS-7 signal peptide + prodomain (rat 1-217, Q1EHB3) (N); 2xStrep tag (C); 6xHis tag (C); made in house; host or cells: Expi293 cells
T1 sequence (Q9UKP4 237-537): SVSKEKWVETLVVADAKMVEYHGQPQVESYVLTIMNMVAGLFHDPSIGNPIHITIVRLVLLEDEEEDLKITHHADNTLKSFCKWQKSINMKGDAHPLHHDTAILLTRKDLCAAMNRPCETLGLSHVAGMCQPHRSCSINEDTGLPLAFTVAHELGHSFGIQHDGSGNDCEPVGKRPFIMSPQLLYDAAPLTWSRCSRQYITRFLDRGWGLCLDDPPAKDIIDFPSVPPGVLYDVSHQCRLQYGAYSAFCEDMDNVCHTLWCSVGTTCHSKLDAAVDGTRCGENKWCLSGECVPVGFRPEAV
Kind of test: Assay for ADAMTS-7 enzymatic activity (FRET substrate cleavage). The conditions noted are these: FRET substrate SEQ ID No. 11, 120 min at 32° C.; read-out: ADAMTS7-IC50. The format is biochemical. The method, boiled down:
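IC50 values were fitted from percent inhibition across test-compound concentrations. Fluorescence gain (ex 485, em 520 nm) reports cleavage of a thrombospondin-1 (275-289) FRET peptide with QXL520 quencher, after 120 min at 32 °C. The enzyme, about 20 nM, was in HEPES pH 8.0 buffer with NaCl, CaCl2, ZnCl2 and Brij.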

For another test, the target named is T2, ADAMTS4 (Homo sapiens, UniProt O75173).
T2 construct: purchased R&D 4307-AD
T2 sequence (O75173 213-685 limits assumed): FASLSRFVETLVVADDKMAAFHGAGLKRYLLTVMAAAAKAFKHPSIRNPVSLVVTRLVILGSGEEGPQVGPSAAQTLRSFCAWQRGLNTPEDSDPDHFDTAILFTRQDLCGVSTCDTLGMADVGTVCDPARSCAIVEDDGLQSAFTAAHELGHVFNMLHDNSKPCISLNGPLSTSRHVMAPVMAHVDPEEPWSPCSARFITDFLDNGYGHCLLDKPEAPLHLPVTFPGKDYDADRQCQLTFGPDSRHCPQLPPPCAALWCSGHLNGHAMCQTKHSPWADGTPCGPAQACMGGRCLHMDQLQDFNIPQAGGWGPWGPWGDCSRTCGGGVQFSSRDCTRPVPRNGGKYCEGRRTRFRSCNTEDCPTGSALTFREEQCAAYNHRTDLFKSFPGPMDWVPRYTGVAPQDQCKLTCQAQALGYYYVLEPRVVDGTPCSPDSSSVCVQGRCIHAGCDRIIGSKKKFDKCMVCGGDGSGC
Briefly: Selectivity assay for ADAMTS-7 modulators (FRET), ADAMTS4. The conditions noted are these: 50 nM enzyme (R&D 4307-AD), 1 μM Dabcyl/Edans FRET substrate, 120 min at 32° C. It counts as biochemical. The method, boiled down: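 Enzyme in 50 mM Tris pH 7.5, 150 mM NaCl, 10 mM CaCl2, 0.05% Brij, preincubated with compound in DMSO; reaction started with FRET substrate. Fluorescence increase read after 120 min at 32° C; IC50 from percent inhibition versus compound concentration.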

On to `O=C1NC(=O)C(CNC(=O)c2cnn(-c3ccc(F)c(F)c3)n2)(c2nccs2)N1` (single isomer, unassigned; ent-2) [Example 107, ent-2-(3,4-difluorophenyl)-N-{[2,5-dioxo-4-(1,3-thiazol-2-yl)imidazolidin-4-yl]methyl}-2H-1,2,3-triazole-4-carboxamide], for which the IC50 was determined as 7 nM in test [1] and 310 nM against ADAMTS4.

As for `O=C1NC(=O)C(CNC(=O)c2cnn(-c3ccc(Cl)c(F)c3)n2)(c2nccs2)N1` (single isomer, unassigned; ent-2) [Example 110, ent-2-(4-chloro-3-fluorophenyl)-N-{[2,5-dioxo-4-(1,3-thiazol-2-yl)imidazolidin-4-yl]methyl}-2H-1,2,3-triazole-4-carboxamide], the IC50 was 5 nM in test [1] and 400 nM on ADAMTS4.

For the compound `O=C1NC(=O)C(CNC(=O)c2cnn(-c3ccc(F)c(Cl)c3)n2)(c2nccs2)N1` (single isomer, unassigned; ent-2) [Example 112, ent-2-(3-chloro-4-fluorophenyl)-N-{[2,5-dioxo-4-(1,3-thiazol-2-yl)imidazolidin-4-yl]methyl}-2H-1,2,3-triazole-4-carboxamide], the 50% inhibitory concentration (IC50) in test [1] was found to be 14 nM; on ADAMTS4, 780 nM.

As for `O=C1NC(=O)C(CNC(=O)c2cnn(-c3ccc(F)cc3F)n2)(c2nccs2)N1` (single isomer, unassigned; ent-2) [Example 116, ent-2-(2,4-difluorophenyl)-N-{[2,5-dioxo-4-(1,3-thiazol-2-yl)imidazolidin-4-yl]methyl}-2H-1,2,3-triazole-4-carboxamide], the figures for the IC50 (in test [1]; against ADAMTS4) were 78 nM and 5500 nM, respectively.

For `CC(C)C1(CNC(=O)c2cnn(-c3cccc(F)c3)n2)NC(=O)NC1=O` (single isomer, unassigned; ent-2) [Example 119, ent-2-(3-fluorophenyl)-N-[(4-isopropyl-2,5-dioxoimidazolidin-4-yl)methyl]-2H-1,2,3-triazole-4-carboxamide], the IC50 in test [1] came out at 13 nM; on ADAMTS4, 2300 nM.

Turning to `CC(C)C1(CNC(=O)c2cnn(-c3cccc(C#N)c3)n2)NC(=O)NC1=O` (single isomer, unassigned; ent-2) [Example 121, ent-2-(3-cyanophenyl)-N-[(4-isopropyl-2,5-dioxoimidazolidin-4-yl)methyl]-2H-1,2,3-triazole-4-carboxamide], the IC50 in test [1] is 78 nM; at ADAMTS4, 2600 nM.

Turning to `CC(C)C1(CNC(=O)c2cnn(-c3ccc(F)c(F)c3)n2)NC(=O)NC1=O` (single isomer, unassigned; ent-2) [Example 123, ent-2-(3,4-difluorophenyl)-N-[(4-isopropyl-2,5-dioxoimidazolidin-4-yl)methyl]-2H-1,2,3-triazole-4-carboxamide], the IC50 in test [1] was found to be 7 nM; against ADAMTS4, 910 nM.

With `CC(C)C1(CNC(=O)c2cnn(-c3ccc(Cl)c(F)c3)n2)NC(=O)NC1=O` (single isomer, unassigned; ent-2) [Example 125, ent-2-(4-chloro-3-fluorophenyl)-N-[(4-isopropyl-2,5-dioxoimidazolidin-4-yl)methyl]-2H-1,2,3-triazole-4-carboxamide], the results for the IC50 (in test [1]; on ADAMTS4) were 7 nM and 1000 nM, respectively.

As to `CC(C)C1(CNC(=O)c2cnn(-c3ccc(F)c(Cl)c3)n2)NC(=O)NC1=O` (single isomer, unassigned; ent-2) [Example 126, ent-2-(3-chloro-4-fluorophenyl)-N-[(4-isopropyl-2,5-dioxoimidazolidin-4-yl)methyl]-2H-1,2,3-triazole-4-carboxamide], the IC50 in test [1] was found to be 190 nM; against ADAMTS4, 12000 nM.

On to `Cn1ccnc1C1(CNC(=O)c2cnn(-c3ccc(F)cc3)n2)NC(=O)NC1=O` (single isomer, unassigned; ent-2) [Example 144, ent-2-(4-fluorophenyl)-N-{[4-(1-methyl-1H-imidazol-2-yl)-2,5-dioxoimidazolidin-4-yl]methyl}-2H-1,2,3-triazole-4-carboxamide], for which the figures for the IC50 (in test [1]; against ADAMTS4) were 2 nM and 130 nM, respectively.

For `Cn1ccnc1C1(CNC(=O)c2cnn(-c3ccc(Cl)c(F)c3)n2)NC(=O)NC1=O` (single isomer, unassigned; ent-2) [Example 145, ent-2-(4-chloro-3-fluorophenyl)-N-{[4-(1-methyl-1H-imidazol-2-yl)-2,5-dioxoimidazolidin-4-yl]methyl}-2H-1,2,3-triazole-4-carboxamide], the IC50 in test [1] stood at 2 nM; at ADAMTS4 it was 41 nM.

As to `Cn1ccnc1C1(CNC(=O)c2cnn(-c3ccc(F)c(F)c3)n2)NC(=O)NC1=O` (single isomer, unassigned; ent-2) [Example 147, ent-2-(3,4-difluorophenyl)-N-{[4-(1-methyl-1H-imidazol-2-yl)-2,5-dioxoimidazolidin-4-yl]methyl}2H-1,2,3-triazole-4-carboxamide], the values for the concentration for half-maximal inhibition (IC50) (in test [1]; against ADAMTS4) were 3 nM and 46 nM, respectively.

As for `CC1(CNC(=O)c2cnn(-c3ccc(F)cc3)n2)NC(=O)NC1=O` (single isomer, unassigned; ent-2) [Example 153, ent-2-(4-fluorophenyl)-N-[(4-methyl-2,5-dioxoimidazolidin-4-yl)methyl]-2H-1,2,3-triazole-4-carboxamide], the half-inhibitory concentration (IC50) in test [1] was found to be 83 nM; at ADAMTS4, 8900 nM.

As to `O=C1NC(=O)[C@](CNC(=O)c2cnn(-c3cccc(F)c3)n2)(C2CC2)N1` [Example 1, N-{[(4R)-4-cyclopropyl-2,5-dioxoimidazolidin-4-yl]methyl}-2-(3-fluorophenyl)-2H-1,2,3-triazole-4-carboxamide], the 50% inhibitory concentration (IC50) in test [1] stood at 13 nM; against ADAMTS4, 580 nM.

Take `CC(C)(C)C1(CNC(=O)c2cnn(-c3ccc(F)cc3)n2)NC(=O)NC1=O` (stereo not drawn) [Example 3, ent-N-{[4-tert-butyl-2,5-dioxoimidazolidin-4-yl]methyl}-2-(4-fluorophenyl)-2H-1,2,3-triazole-4-carboxamide]: the IC50 in test [1] is 79 nM; on ADAMTS4, 2200 nM.

Take `O=C1NC(=O)[C@](CNC(=O)c2cnn(-c3ccc(C(F)(F)F)c(F)c3)n2)(C2CC2)N1` [Example 5, N-{[(4R)-4-cyclopropyl-2,5-dioxoimidazolidin-4-yl]methyl}-2-[3-fluoro-4-(trifluoromethyl)phenyl]-2H-1,2,3-triazole-4-carboxamide]: the IC50 in test [1] came out at 120 nM; against ADAMTS4, 4600 nM.

With `O=C1NC(=O)[C@](CNC(=O)c2cnn(-c3ccc(F)c(F)c3)n2)(C2CC2)N1` [Example 8, N-{[(4R)-4-cyclopropyl-2,5-dioxoimidazolidin-4-yl]methyl}-2-(3,4-difluorophenyl)-2H-1,2,3-triazole-4-carboxamide], the results for the IC50 (in test [1]; against ADAMTS4) were 7 nM and 175 nM, respectively.

For the compound `O=C1NC(=O)[C@](CNC(=O)c2cnn(-c3ccc(Cl)cc3)n2)(C2CC2)N1` [Example 9, 2-(4-chlorophenyl)-N-{[(4R)-4-cyclopropyl-2,5-dioxoimidazolidin-4-yl]methyl}-2H-1,2,3-triazole-4-carboxamide], the figures for the IC50 (in test [1]; against ADAMTS4) were 26 nM and 480 nM, respectively.

For the compound `O=C1NC(=O)[C@](CNC(=O)c2cnn(-c3cccc(Cl)c3)n2)(C2CC2)N1` [Example 10, 2-(3-chlorophenyl)-N-{[(4R)-4-cyclopropyl-2,5-dioxoimidazolidin-4-yl]methyl}-2H-1,2,3-triazole-4-carboxamide], the IC50 in test [1] came out at 21 nM; at ADAMTS4 it was 450 nM.

Regarding `O=C1NC(=O)[C@](CNC(=O)c2cnn(-c3ccccc3Cl)n2)(C2CC2)N1` [Example 11, 2-(2-chlorophenyl)-N-{[(4R)-4-cyclopropyl-2,5-dioxoimidazolidin-4-yl]methyl}-2H-1,2,3-triazole-4-carboxamide], the IC50 was determined as 470 nM in test [1] and 10000 nM at ADAMTS4.

`Cc1ccccc1-n1ncc(C(=O)NC[C@@]2(C3CC3)NC(=O)NC2=O)n1` [Example 12, N-{[(4R)-4-cyclopropyl-2,5-dioxoimidazolidin-4-yl]methyl}-2-(2-methylphenyl)-2H-1,2,3-triazole-4-carboxamide]: the values for the IC50 (in test [1]; against ADAMTS4) were 980 nM and 12000 nM, respectively.
